Several values for one entry are separate records, joined by “and”; a condition that tells them apart may be missing. Equal entries are not always repeated.
Details: Torsion effusion method

[I][Yb][I] [ytterbium(II) iodide]
Details	vapor or sublimation pressure
968 K, Crystal	1.9e-05 kPa
975 K, Crystal	2.8e-05 kPa
976 K, Crystal	2.8e-05 kPa
978 K, Crystal	3.8e-05 kPa
982 K, Crystal	3.8e-05 kPa
987 K, Crystal	3.8e-05 kPa
989 K, Crystal	3.8e-05 kPa and 4.8e-05 kPa and 5.6e-05 kPa
991 K, Crystal	4.8e-05 kPa
996 K, Crystal	5.6e-05 kPa and 6.6e-05 kPa
997 K, Crystal	6.3e-05 kPa
998 K, Crystal	5.6e-05 kPa
999 K, Crystal	5.6e-05 kPa
1003 K, Crystal	6.3e-05 kPa
1005 K, Crystal	8.5e-05 kPa
1006 K, Crystal	7.6e-05 kPa and 7.9e-05 kPa
1008 K, Crystal	6.3e-05 kPa and 7.6e-05 kPa
1011 K, Crystal	8.5e-05 kPa
1013 K, Crystal	7.9e-05 kPa and 0.000115 kPa
1014 K, Crystal	9.3e-05 kPa
1015 K, Crystal	9.5e-05 kPa
1017 K, Crystal	9.5e-05 kPa
1019 K, Crystal	9.3e-05 kPa
1020 K, Crystal	0.000115 kPa
1021 K, Crystal	0.000141 kPa
1022 K, Crystal	0.000126 kPa
1023 K, Crystal	0.00011 kPa
1025 K, Crystal	0.000132 kPa
1026 K, Crystal	0.000132 kPa
1029 K, Crystal	0.000126 kPa
1030 K, Crystal	0.000158 kPa and 0.000151 kPa and 0.000182 kPa
1034 K, Crystal	0.00017 kPa
1035 K, Crystal	0.000158 kPa and 0.00017 kPa and 0.000182 kPa
1038 K, Crystal	0.000219 kPa
1039 K, Crystal	0.000174 kPa and 0.000204 kPa
1040 K, Crystal	0.000209 kPa
1043 K, Crystal	0.000229 kPa [middle of 4 runs]
1046 K, Crystal	0.000282 kPa
1049 K, Crystal	0.000234 kPa and 0.000282 kPa
1068 K, Liquid	0.000468 kPa
1073 K, Liquid	0.000501 kPa
1078 K, Liquid	0.000631 kPa
1082 K, Liquid	0.000631 kPa
1087 K, Liquid	0.000759 kPa
1092 K, Liquid	0.000813 kPa
1098 K, Liquid	0.001 kPa
1101 K, Liquid	0.001 kPa
1103 K, Liquid	0.001202 kPa
1108 K, Liquid	0.00138 kPa
1111 K, Liquid	0.001259 kPa
1112 K, Liquid	0.001445 kPa
1117 K, Liquid	0.001698 kPa
1119 K, Liquid	0.001585 kPa
1122 K, Liquid	0.001862 kPa
1127 K, Liquid	0.002138 kPa
1128 K, Liquid	0.001995 kPa
1132 K, Liquid	0.002239 kPa
1137 K, Liquid	0.002754 kPa
1138 K, Liquid	0.002512 kPa
1143 K, Liquid	0.002951 kPa
1148 K, Liquid	0.003388 kPa and 0.00309 kPa
1152 K, Liquid	0.003548 kPa
1158 K, Liquid	0.004365 kPa and 0.003981 kPa
1162 K, Liquid	0.004786 kPa
1168 K, Liquid	0.005754 kPa and 0.005129 kPa
1173 K, Liquid	0.006026 kPa
1179 K, Liquid	0.006918 kPa and 0.006761 kPa
1183 K, Liquid	0.007586 kPa
1189 K, Liquid	0.00871 kPa
1192 K, Liquid	0.008913 kPa
